Earlier results as cited in patent US9901554B2, “Biodegradable compositions suitable for controlled release” (INGELL TECHNOLOGIES HOLDING B.V., priority 2011, dated 2018).
Like-named read-outs stand apart in the source and are kept apart here.

| solubility in water (small molecules and peptide) | Molecule | solubility in water (model proteins) |
| --- | --- | --- |
| below 1 ug/ml | Cc1ccc(-c2cc(C(F)(F)F)nn2-c2ccc(S(N)(=O)=O)cc2)cc1 [celecoxib] | – |
| above 5000 ug/ml | CN(CC(O)CO)C(=O)c1c(I)c(NC(=O)C(CO)CO)c(I)c(C(=O)N(C)CC(O)CO)c1I (centres unmarked) [iobitridol] | – |
| below 20 ug/ml | CC1(C)O[C@@H]2C[C@H]3[C@@H]4CCC5=CC(=O)C=C[C@]5(C)[C@@]4(F)[C@@H](O)C[C@]3(C)[C@]2(C(=O)CO)O1 [triamcinolone acetonide] | – |
| – | bovine serum albumin: water soluble model protein (Sigma) | above 10000 μg/ml |
| – | lysozyme: water soluble model protein of around 16 kDa (Sigma) | above 10000 μg/ml |
